Experimental data taken from US10280145B2 (Toray Industries, Inc., priority 2015, dated 2019).

molecular target: T1, intracellular domain of DDR1 (Homo sapiens, UniProt Q08345); test: Evaluation of DDR1 inhibition activity with HTRF KinEASE-TK kit; type: biochemical; details: DDR1 intracellular domain 5 ng/μL, ATP 25 μm/L, TK Substrate-biotin 1000 nmol/L, room temperature, one hour
T1 construct: the intracellular domain of DDR1 (in a final concentration of 5 ng/μL) (Carna Biosciences, Inc.); purchased Carna Biosciences, Inc
Protocol: The DDR1 inhibition activity in the compounds of Examples 1 to 80 was evaluated with HTRF® KinEASE-TK kit (Cisbio Bioassays).
Each test substance was dissolved in dimethyl sulfoxide and then used for the evaluation as described below. Moreover, each of test substances and reagents was diluted in the kinase buffer (Cisbio Bioassays) prepared by adding thereto MgCl2, MnCl2, DTT, and the Supplemental Enzyme buffer (Cisbio Bioassays) to concentrations of 5 mmol/L, 0.5 mmol/L, 0.25 mmol/L, and 50 nmol/L, respectively, and then used. Each test substance (in DMSO in a final concentration of 1%), the intracellular domain of DDR1 (in a final concentration of 5 ng/μL) (Carna Biosciences, Inc.), the phosphate donor ATP (in final concentration of 25 μm/L) (Sigma), and the substrate TK Substrate-biotin (in a final concentration of 1000 nmol/L) (Cisbio Bioassays) were added to a 384-well black plate (Corning) and allowed to react at room temperature for one hour. After completion of the reaction, the TK Antibody-Cryptate (Cisbio Bioassays) and the Streptavidin-XL665 (Cisbio Bioassays) were added thereto and allowed to react at room temperature for one hour. In addition, the plate was provided with a well to which a test substance was not added, and with a well to which a test substance and the intracellular domain of DDR1 were […].
The fluorescence intensity in each well was measured using a multi-label counter (Envision, PerkinElmer; excitation wavelength: 320 nm, measurement wavelength: 665 nm and 620 nm) to calculate a ratio (the fluorescence intensity at 665 nm/the fluorescence intensity at 620 nm). The inhibition rate (%) of a test substance at each concentration was calculated based on the formula below: Inhibition rate (%)=([the ratio obtained from the well containing no test substance]−[the ratio from a well containing a test substance])/([the ratio obtained from the well containing no test substance]−[the ratio obtained from the well containing no intracellular domain of DDR1 and no test substance])×100.
The calculated inhibition rates were fitted to a sigmoidal dose-response curve by regression analysis using the Prism 5.04 (GraphPad Software, Inc.) to calculate the IC50 value of the test substance.

T1 sequence (Q08345 439-913 limits assumed): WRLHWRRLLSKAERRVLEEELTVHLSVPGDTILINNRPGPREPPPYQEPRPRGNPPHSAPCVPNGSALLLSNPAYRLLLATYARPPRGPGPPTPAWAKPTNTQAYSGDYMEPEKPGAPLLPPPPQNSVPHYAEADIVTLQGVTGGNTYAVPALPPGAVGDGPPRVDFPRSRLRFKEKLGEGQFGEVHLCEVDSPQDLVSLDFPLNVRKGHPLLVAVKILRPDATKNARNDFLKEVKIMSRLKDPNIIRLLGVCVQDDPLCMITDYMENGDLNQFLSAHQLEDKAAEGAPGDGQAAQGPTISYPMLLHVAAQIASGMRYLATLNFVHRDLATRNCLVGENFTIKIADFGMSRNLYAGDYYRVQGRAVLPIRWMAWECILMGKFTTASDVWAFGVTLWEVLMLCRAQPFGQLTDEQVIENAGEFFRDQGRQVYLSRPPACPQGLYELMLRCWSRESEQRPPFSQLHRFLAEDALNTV

SMILES	IC50
O=C(Nc1cc(C(F)(F)F)ccc1O[C@H]1CCNC1)N[C@H]1CC[C@H](OCc2ccncc2)CC1 [Example 36, 1-(trans-4-(pyridin-4-ylmethoxy)cyclohexyl)-3-(2-((S)-pyrrolidin-3-yloxy)-5-(trifluoromethyl)phenyl)urea]	140 nM
CNc1nccc(O[C@H]2CC[C@H](NC(=O)Nc3cc(OC(F)(F)F)ccc3OC)CC2)n1 [Example 3, 1-(2-methoxy-5-(trifluoromethoxy)phenyl)-3-(trans-4-((2-(methylamino)pyrimidin-4-yl)oxy)cyclohexyl)urea]	141 nM
COc1ccc(OC(F)(F)F)cc1NC(=O)N[C@H]1CC[C@H](Oc2ccncn2)CC1 [Example 2, 1-(2-methoxy-5-(trifluoromethoxy)phenyl)-3-(trans-4-(pyrimidin-4-yloxy)cyclohexyl)urea]	229 nM
COc1c(CO)cc(C(F)(F)F)cc1NC(=O)N[C@H]1CC[C@H](Oc2ccc(-c3ccccc3)nn2)CC1 [Example 17, 1-(3-(hydroxymethyl)-2-methoxy-5-(trifluoromethyl)phenyl)-3-(4-((6-phenylpyridazin-3-yl)oxy)cyclohexyl)urea]	189 nM
COc1ccc(OC(F)(F)F)cc1NC(=O)N[C@H]1CC[C@H](COc2cccc(C(N)=O)c2)CC1 [Example 78, 3-((trans-4-(3-(2-methoxy-5-(trifluoromethoxy)phenyl)ureido)cyclohexyl)methoxy)benzamide]	80.1 nM
COc1ccc(OC(F)(F)F)cc1NC(=O)N[C@H]1CC[C@H](Oc2ccnc(N3CCOCC3)n2)CC1 [Example 1, 1-(2-methoxy-5-(trifluoromethoxy)phenyl)-3-(trans-4-((2-morpholinopyrimidin-4-yl)oxy)cyclohexyl)urea]	476 nM
O=C(Nc1cc(C(F)(F)F)ccc1OC1COC1)N[C@H]1CC[C@H](Oc2ncccn2)CC1 [Example 13, 1-(2-(oxetan-3-yloxy)-5-(trifluoromethyl)phenyl)-3-(trans-4-(pyrimidin-2-yloxy)cyclohexyl)urea]	57.6 nM
COc1ccc(OC(F)(F)F)cc1NC(=O)N[C@H]1CC[C@H](Oc2cc(N3CCOCC3)ncn2)CC1 [Example 59, 1-(2-methoxy-5-(trifluoromethoxy)phenyl)-3-(trans-4-((6-morpholinopyrimidin-4-yl)oxy)cyclohexyl)urea]	335 nM
COc1ccc(C(F)(F)F)cc1NC(=O)N[C@H]1CC[C@H](Oc2nccc(-c3cccnc3)n2)CC1 [Example 40, 1-(2-methoxy-5-(trifluoromethyl)phenyl)-3-(trans-4-((4-(pyridin-3-yl)pyrimidin-2-yl)oxy)cyclohexyl)urea]	98 nM
COc1ccc(C(F)(F)F)cc1NC(=O)N[C@H]1CC[C@H](Oc2ccnc(-c3cccnc3)n2)CC1 [Example 37, 1-(2-methoxy-5-(trifluoromethyl)phenyl)-3-(trans-4-((2-(pyridin-3-yl)pyrimidin-4-yl)oxy)cyclohexyl)urea]	149 nM
O=C(Nc1cc(C(F)(F)F)ccc1Cl)N[C@H]1CC[C@H](OCc2ccncc2)CC1 [Example 29, 1-(2-chloro-5-(trifluoromethyl)phenyl)-3-(trans-4-(pyridin-4-ylmethoxy)cyclohexyl)urea]	133 nM
O=C(Nc1cc(S(F)(F)(F)(F)F)ccc1OC1COC1)N[C@H]1CC[C@H](Oc2ncccn2)CC1 [Example 14, 1-(2-(oxetan-3-yloxy)-5-(pentafluorosulfanyl)phenyl)-3-(trans-4-(pyrimidin-2-yloxy)cyclohexyl)urea]	76.7 nM
O=C(Nc1cc(C(F)(F)F)ccc1OC1COC1)N[C@H]1CC[C@H](Oc2ccnc(-c3cccnc3)n2)CC1 [Example 38, 1-(2-(oxetan-3-yloxy)-5-(trifluoromethyl)phenyl)-3-(trans-4-((2-(pyridin-3-yl)pyrimidin-4-yl)oxy)cyclohexyl)urea]	61 nM
O=C(Nc1cc(C(F)(F)F)ccc1OC1COC1)N[C@H]1CC[C@H](Oc2ccnc(N3CCOCC3)n2)CC1 [Example 7, 1-(trans-4-((2-morpholinopyrimidin-4-yl)oxy)cyclohexyl)-3-(2-(oxetan-3-yloxy)-5-(trifluoromethyl)phenyl)urea]	111 nM
COc1c(CO)cc(C(F)(F)F)cc1NC(=O)N[C@H]1CC[C@H](Oc2ccnc(NCCO)n2)CC1 [Example 61, 1-(trans-4-((2-((2-hydroxyethyl)amino)pyrimidin-4-yl)oxy)cyclohexyl)-3-(3-(hydroxymethyl)-2-methoxy-5-(trifluoromethyl)phenyl)urea]	57.9 nM

Stronger by IC50, values ahead:

IC50	SMILES
51 nM	CC(=O)N1CCC(Oc2ccc(C(F)(F)F)cc2NC(=O)N[C@H]2CC[C@H](OCc3ccncc3)CC2)CC1 [Example 34, 1-(2-((1-acetylpiperidin-4-yl)oxy)-5-(trifluoromethyl)phenyl)-3-(trans-4-(pyridin-4-ylmethoxy)cyclohexyl)urea]
45.6 nM	O=C(Nc1cc(C(F)(F)F)ccc1OC1COC1)N[C@H]1CC[C@H](Oc2nccc(-c3cccnc3)n2)CC1 [Example 41, 1-(2-(oxetan-3-yloxy)-5-(trifluoromethyl)phenyl)-3-(trans-4-((4-(pyridin-3-yl)pyrimidin-2-yl)oxy)cyclohexyl)urea]
35.1 nM	COc1c(CO)cc(OC(F)(F)F)cc1NC(=O)N[C@H]1CC[C@H](Oc2ccnc(N3CCOCC3)n2)CC1 [Example 50, 1-(3-(hydroxymethyl)-2-methoxy-5-(trifluoromethoxy)phenyl)-3-(trans-4-((2-morpholinopyrimidin-4-yl)oxy)cyclohexyl)urea]
31.3 nM	CNc1cc(O[C@H]2CC[C@H](NC(=O)Nc3cc(C(F)(F)F)ccc3OC3CCNCC3)CC2)ncn1 [Example 43]
28 nM	CC(=O)N1CC(Oc2ccc(C(F)(F)F)cc2NC(=O)N[C@H]2CC[C@H](OCc3ccncc3)CC2)C1 [Example 33, 1-(2-((1-acetylazetidin-3-yl)oxy)-5-(trifluoromethyl)phenyl)-3-(trans-4-(pyridin-4-ylmethoxy)cyclohexyl)urea]
24.9 nM	CNc1nccc(O[C@H]2CC[C@H](NC(=O)Nc3cc(OC(F)(F)F)cc(CO)c3OC)CC2)n1 [Example 80, 1-(3-(hydroxymethyl)-2-methoxy-5-(trifluoromethoxy)phenyl)-3-(trans-4-((2-(methylamino)pyrimidin-4-yl)oxy)cyclohexyl)urea]
22.8 nM	COc1c(CO)cc(OC(F)(F)F)cc1NC(=O)N[C@H]1CC[C@H](Oc2ccnc(-c3cccnc3)n2)CC1 [Example 79, 1-(3-(hydroxymethyl)-2-methoxy-5-(trifluoromethoxy)phenyl)-3-(trans-4-((2-(pyridin-3-yl)pyrimidin-4-yl)oxy)cyclohexyl)urea]
20 nM	COc1ccc(C(F)(F)F)cc1NC(=O)N[C@H]1CC[C@H](COCc2ccncc2)CC1 [Example 75, 1-(2-methoxy-5-(trifluoromethyl)phenyl)-3-(trans-4-((pyridin-4-ylmethoxy)methyl)cyclohexyl)urea]
17.2 nM	COc1ccc(C(F)(F)F)cc1NC(=O)N[C@H]1CC[C@H](OCc2cccnc2)CC1 [Example 69, 1-(2-methoxy-5-(trifluoromethyl)phenyl)-3-(trans-4-(pyridin-3-ylmethoxy)cyclohexyl)urea]
10.8 nM	CNc1cc(O[C@H]2CC[C@H](NC(=O)Nc3cc(C(F)(F)F)cc(CO)c3OC)CC2)ncn1 [Example 71, 1-(3-(hydroxymethyl)-2-methoxy-5-(trifluoromethyl)phenyl)-3-(trans-4-((6-(methylamino)pyrimidin-4-yl)oxy)cyclohexyl)urea]
